Marks after values point to notes of the source that are not given here.
Experiments:
[1] = Critical micelle concentration (CMC) by fluorescent dye uptake; format: physicochemical
Excerpt: The Critical Micelle Concentrations (CMCs) of compounds of the invention can be determined by standard techniques known to those of skill in the art. For example, CMCs of the carbohydrate-based amphiphiles described herein can be determined by monitoring uptake of a fluorescent dye (e.g., a dye such as 1,6-diphenylhexatriene) with increasing detergent concentration, monitored by fluorescence spectroscopy.

[2] = system: human β2 adrenergic receptor-T4-lyosome fusion protein (β2AR-T4L); assay: Thermal stabilization (Tm) of β2AR-T4L in amphiphile, normalized peak ratio 341 nm/356 nm; set-up: Tm: unit: °C; settings: for Tm: β2AR-T4L
Excerpt: FIG. 3 illustrates the results of comparing MNGs to MPAs at 10×CMC for stabilization efficacy of β2 adrenergic receptor-T4-lyosome fusion protein (β2AR-T4L), according to an embodiment of the invention.
FIG. 4 illustrates the results of comparing MNGs to MPAs at 50×CMC for stabilization efficacy of β2AR-T4L, according to an embodiment of the invention. Similar to FIG. 3, the horizontal dotted line extending from 50% on the y-axis in FIG. 4 indicates the melting temperature (Tm).
The branched amphiphiles of the invention have shown to have several advantageous properties that match or surpass those of many known amphiphiles. The branched nature provide improved stabilization, attributable to the dual saccharide chains, and improved solubilization, attributable to the dual hydrophobic tail groups. FIGS. 3 and 4 show a comparative study showing normalized peak ratios (341 nm/356 nm) for six different amphiphiles (illustrated in Schemes F and G) from 25° C. to 85° C., at 10×CMC and 50×CMC for human β2 adrenergic receptor-T4-lyosome fusion protein (β2AR-T4L).

[3] = 10 × CMC, scan from 25° C. to 85° C.
[4] = concentration not given, matches most favourable (*) Tm minus DDM 63.5

Row | SMILES | CMC [1] [mM] | CMC (%) [1] [%] | ΔTm ([2]; 10 × CMC, relative to DDM) | Tm [2, 3] | ΔTm ([2]; 50 × CMC, relative to DDM) | Tm ([2]; 50 × CMC) | ΔTm [2, 4]
1 | CCCCCOCC(COCCCCC)(COC1OC(CO)C(O)C(O)C1O)COC1OC(CO)C(O)C(O)C1O (centres unmarked) [GNG-14] | 13.4 | 0.647 | – | – | – | – | –
2 | OCC1OC(OCC(COC2OC(CO)C(O)C(O)C2O)(CSC2CCCCC2)CSC2CCCCC2)C(O)C(O)C1O (centres unmarked) [GNG-1] | 2.1 | 0.13 | – | – | – | – | –
3 | OCC1OC(OCC(COC2OC(CO)C(O)C(O)C2O)(CSCCc2ccccc2)CSCCc2ccccc2)C(O)C(O)C1O (centres unmarked) [GNG-11] | 0.82 | 0.06 | – | – | – | – | –
4 | CCCCCC(CCCCC)(COC1OC(CO)C(O)C(O)C1O)COC1OC(CO)C(O)C(O)C1O (centres unmarked) [GNG-13] | 9.64 | 0.373 | – | – | – | – | –
5 | CCCCCCOCC(COCCCCCC)(COC1OC(CO)C(O)C(O)C1O)COC1OC(CO)C(O)C(O)C1O (centres unmarked) [GNG-6] | 1.55 | 0.08 | – | – | – | – | –
6 | CCCCCCCOCC(COCCCCCCC)(COC1OC(CO)C(O)C(O)C1O)COC1OC(CO)C(O)C(O)C1O (centres unmarked) [GNG-7] | 0.1 | 0.0092 | – | – | – | – | –
7 | O=C(NCC(CNC(=O)C1CCCC1)(COC1OC(CO)C(O)C(O)C1O)COC1OC(CO)C(O)C(O)C1O)C1CCCC1 (centres unmarked) [GNG-4] | 72 | 4.7 | – | – | – | – | –
8 | OCC1OC(OCC(COC2CCCCC2)(COC2CCCCC2)COC2OC(CO)C(O)C(O)C2O)C(O)C(O)C1O (centres unmarked) [GNG-10] | 17 | 1.07 | – | – | – | – | –
9 | CCCCCCC(CCCCCC)(COC1OC(CO)C(O)C(O)C1O)COC1OC(CO)C(O)C(O)C1O (centres unmarked) [GNG-12] | 1.02 | 0.058 | – | – | – | – | –

Further lines, results first:

Row | CMC [1] [mM] | CMC (%) [1] [%] | ΔTm ([2]; 10 × CMC, relative to DDM) | Tm [2, 3] | ΔTm ([2]; 50 × CMC, relative to DDM) | Tm ([2]; 50 × CMC) | ΔTm [2, 4] | SMILES
10 | 0.017 | 0.0018 | – | – | – | – | – | CCCCCCCCCOCC(COCCCCCCCCC)(COC1OC(CO)C(OC2OC(CO)C(O)C(O)C2O)C(O)C1O)COC1OC(CO)C(OC2OC(CO)C(O)C(O)C2O)C(O)C1O (centres unmarked) [MNG-30]
11 | – | – | −4.7 | 58.8 (n = 3)* | −4.7 | 58.3 (n = 3) | −4.7 | CCCCCCCCCCOCCOC1OC(CO)C(OC2OC(CO)C(O)C(O)C2O)C(O)C1O (centres unmarked) [MPA-11]
12 | 0.02 | 0.002 | – | – | – | – | – | CCCCCCCCCCCCC(=O)NCC(CNC(=O)CCCCCCCC)(COC1OC(CO)C(OC2OC(CO)C(O)C(O)C2O)C(O)C1O)COC1OC(CO)C(OC2OC(CO)C(O)C(O)C2O)C(O)C1O (centres unmarked) [MNG-17]
13 | 0.18 | 0.0194 | – | – | – | – | – | CCCCCCCC(=O)NCC(CNC(=O)CCCCC1CCCCC1)(COC1OC(CO)C(OC2OC(CO)C(O)C(O)C2O)C(O)C1O)COC1OC(CO)C(OC2OC(CO)C(O)C(O)C2O)C(O)C1O (centres unmarked) [MNG-19]
14 | 0.053 | 0.0059 | – | – | – | – | – | O=C(CCCCC1CCCCC1)NCC(CNC(=O)CCCCC1CCCCC1)(COC1OC(CO)C(OC2OC(CO)C(O)C(O)C2O)C(O)C1O)COC1OC(CO)C(OC2OC(CO)C(O)C(O)C2O)C(O)C1O (centres unmarked) [MNG-10]
15 | 0.3 | 0.0319 | – | – | – | – | – | CCCCCCCCC(=O)NCC(CNC(=O)CCCCCCCC)(COC1OC(CO)C(OC2OC(CO)C(O)C(O)C2O)C(O)C1O)COC1OC(CO)C(OC2OC(CO)C(O)C(O)C2O)C(O)C1O (centres unmarked) [MNG-20]
16 | 0.02 | 0.0022 | – | – | – | – | – | CCCCCCCCCCCCCC(=O)NCC(CNC(=O)CCCCCCC)(COC1OC(CO)C(OC2OC(CO)C(O)C(O)C2O)C(O)C1O)COC1OC(CO)C(OC2OC(CO)C(O)C(O)C2O)C(O)C1O (centres unmarked) [MNG-15]
17 | 0.9 | 0.1162 | – | – | – | – | – | O=C(Cc1cc(C(F)(F)F)cc(C(F)(F)F)c1)NCC(CNC(=O)Cc1cc(C(F)(F)F)cc(C(F)(F)F)c1)(COC1OC(CO)C(OC2OC(CO)C(O)C(O)C2O)C(O)C1O)COC1OC(CO)C(OC2OC(CO)C(O)C(O)C2O)C(O)C1O (centres unmarked) [MNG-23]
18 | 0.84 | 0.1108 | – | – | – | – | – | O=C(CCc1cc(C(F)(F)F)cc(C(F)(F)F)c1)NCC(CNC(=O)CCc1cc(C(F)(F)F)cc(C(F)(F)F)c1)(COC1OC(CO)C(OC2OC(CO)C(O)C(O)C2O)C(O)C1O)COC1OC(CO)C(OC2OC(CO)C(O)C(O)C2O)C(O)C1O (centres unmarked) [MNG-24]
19 | 0.017 | 0.0019 | +1.6 | 65.1 (n = 3)* | +2.1 | 65.1 (n = 3)* | +1.6 | CCCCCCCCCCC(=O)NCC(CNC(=O)CCCCCCCCCC)(CO[C@H]1OC(CO)[C@H](O[C@@H]2OC(CO)[C@H](O)C(O)[C@H]2O)C(O)[C@H]1O)CO[C@H]1OC(CO)[C@H](O[C@@H]2OC(CO)[C@H](O)C(O)[C@H]2O)C(O)[C@H]1O (some centres unmarked) [MNG-1]
20 | 0.39 | 0.043 | – | – | – | – | – | O=C(CCCC1CCCCC1)NCC(CNC(=O)CCCC1CCCCC1)(COC1OC(CO)C(OC2OC(CO)C(O)C(O)C2O)C(O)C1O)COC1OC(CO)C(OC2OC(CO)C(O)C(O)C2O)C(O)C1O (centres unmarked) [MNG-9]
21 | – | – | −12.1 | 51.4 (n = 3)* | – | – | −12.1 | CCCCCCCCCCC(=O)NCCOC1OC(CO)C(OC2OC(CO)C(O)C(O)C2O)C(O)C1O (centres unmarked) [MPA-6]
22 | 0.009 | 0.00096 | +1.1 | 64.6 (n = 3) | +4.1 | 67.1 (n = 3)* | +3.6 | CCCCCCCCCCOCC(COCCCCCCCCCC)(CO[C@H]1OC(CO)[C@H](O[C@@H]2OC(CO)[C@H](O)C(O)[C@H]2O)C(O)[C@H]1O)CO[C@H]1OC(CO)[C@H](O[C@@H]2OC(CO)[C@H](O)C(O)[C@H]2O)C(O)[C@H]1O (some centres unmarked) [MNG-6]
23 | 0.008 | 0.0009 | – | – | – | – | – | CCCCCCCCCCCC(=O)NCC(CNC(=O)CCCCCCCCCCC)(COC1OC(CO)C(OC2OC(CO)C(O)C(O)C2O)C(O)C1O)COC1OC(CO)C(OC2OC(CO)C(O)C(O)C2O)C(O)C1O (centres unmarked) [MNG-27]
24 | 0.092 | 0.0095 | – | – | – | – | – | CCCCC(CCCC)OCC(COC(CCCC)CCCC)(COC1OC(CO)C(OC2OC(CO)C(O)C(O)C2O)C(O)C1O)COC1OC(CO)C(OC2OC(CO)C(O)C(O)C2O)C(O)C1O (centres unmarked) [MNG-33]
25 | 0.023 | 0.0026 | – | – | – | – | – | CCCCCCCCCCCCCCCC(=O)NCC(CNC(=O)CCCCC)(COC1OC(CO)C(OC2OC(CO)C(O)C(O)C2O)C(O)C1O)COC1OC(CO)C(OC2OC(CO)C(O)C(O)C2O)C(O)C1O (centres unmarked) [MNG-16]
26 | 0.24 | 0.0268 | – | – | – | – | – | CCCCCCCC(=O)NCC(CNC(=O)C(C1CCCCC1)C1CCCCC1)(COC1OC(CO)C(OC2OC(CO)C(O)C(O)C2O)C(O)C1O)COC1OC(CO)C(OC2OC(CO)C(O)C(O)C2O)C(O)C1O (centres unmarked) [MNG-21]
27 | 0.12 | 0.0134 | – | – | – | – | – | CC(C)(C)C1CCC(C(=O)NCC(CNC(=O)C2CCC(C(C)(C)C)CC2)(COC2OC(CO)C(OC3OC(CO)C(O)C(O)C3O)C(O)C2O)COC2OC(CO)C(OC3OC(CO)C(O)C(O)C3O)C(O)C2O)CC1 (centres unmarked) [MNG-26]
28 | 0.043 | 0.0047 | – | – | – | – | – | CCCCCCCCCC(=O)NCC(CNC(=O)CCCCCCCCC)(COC1OC(CO)C(OC2OC(CO)C(O)C(O)C2O)C(O)C1O)COC1OC(CO)C(OC2OC(CO)C(O)C(O)C2O)C(O)C1O (centres unmarked) [MNG-13]
29 | 0.024 | 0.0027 | – | – | – | – | – | CCCCCCCCCCCCCCC(=O)NCC(CNC(=O)CCCCCC)(COC1OC(CO)C(OC2OC(CO)C(O)C(O)C2O)C(O)C1O)COC1OC(CO)C(OC2OC(CO)C(O)C(O)C2O)C(O)C1O (centres unmarked) [MNG-18]
30 | 0.034 | 0.0034 | – | – | – | – | – | CCCCCCCCOCC(COCCCCCCCC)(COC1OC(CO)C(OC2OC(CO)C(O)C(O)C2O)C(O)C1O)COC1OC(CO)C(OC2OC(CO)C(O)C(O)C2O)C(O)C1O (centres unmarked) [MNG-31]

Reference: patent publication US20130324707A1, “SYNTHETIC AMPHIPHILES FOR MEMBRANE PROTEIN MANIPULATION” (The Board of Trustees of the Leland Stanford Junior …, priority 2009, published 2013)
